Active and inactive are the calls of the source.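 The calls were made as follows: active = compounds cutting yeast counts by over 60% at top dose, with positive span-based score; inactive = the rest.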
Tested on: S. cerevisiae growth, flow cytometry event count, 7 d
Assay: yeast growth inhibition by event count, dose response, cytotoxicity control for yeast caloric restriction mimetic project, powder samples (AID 504926)
Details: at 100 µM; stronger effect = higher value

| SMILES | event count decrease |
| --- | --- |
| Oc1cccc2nc3ccccc3nc12 | 69% |
| CCN(CC)C(=O)c1ccc2nc3ccccc3nc2c1 | -99% (inactive) |
| CCc1nc(NC(C)(C)C)c2cnn(-c3ccccc3)c2n1 | 52% (inactive) |
| Cc1cc(C)cc(NC(=O)CN2CCN(c3ccccn3)CC2)c1 | 2% (inactive) |
| CC(C)(C)n1nc(-c2ccc(Cl)cc2)c2c(N)ncnc21 | -87% (inactive) |
| O=C(Nc1cccc(Cl)c1)Nc1ccc2nccnc2c1 | -73% (inactive) |
| Cc1cc2nc3ccc(N(C)C)cc3nc2cc1N | -28% (inactive) |
| COc1ccc2c(c1)c1nnc(SC)nc1n2C | -72% (inactive) |
| CN(C)CCNc1ncnc2c1cnn2-c1ccc(Cl)cc1 | 19% (inactive) |
| Cn1c(=O)[nH]c2nncnc2c1=O | 24% (inactive) |
| CC(C)OC(=O)c1ccc2nc3ccccc3nc2c1 | 4% (inactive) |
| O=C(c1cccc2nccnc12)N1CCN(c2ccccc2F)CC1 | 55% (inactive) |
| Nc1ccc2nccnc2c1 | -19% (inactive) |
| CNc1ccc2nc3ccccc3[n+](C)c2c1 | 45% (inactive) |
| FC(F)(F)c1nc2cc3nc4ccccc4[nH]c3cc2n1 | -72% (inactive) |
| CCCCCNC(=O)C(=O)C1C(=O)Nc2ccccc21 (stereo not drawn) | 66% |
| COc1cccc2nc3cc(C)c(C)cc3nc12 | 56% (inactive) |
| C[C@@]12C(=O)OC(=O)[C@]1(C)C1CCC2O1 | 88% |
| O=C(Nc1ccc2nccnc2c1)N1CCN(c2ccccc2)CC1 | -25% (inactive) |
| COc1ccc2nc3ccccc3nc2c1N | -32% (inactive) |
| CCn1c2ccccc2c2n[nH]c(=S)nc21 | -35% (inactive) |
| CN(C)C(=O)c1ccc2nccnc2c1 | -100% (inactive) |
| N#CC(c1nc2ccccc2nc1N1CCCC1)S(=O)(=O)c1ccccc1 (stereo not drawn) | 51% (inactive) |
| OCC[n+]1c2ccccc2nc2ccc(N3CCOCC3)cc21 | 19% (inactive) |
| [O-][n+]1c2ccccc2[n+]([O-])c2cc(O)ccc21 | 15% (inactive) |

| SMILES | event count decrease |
| --- | --- |
| O=C(CN1CCN(c2ccccn2)CC1)Nc1ccccc1F | -51% (inactive) |
| COc1ccc2nc3ccccc3nc2c1NC(=O)c1ccccc1Cl | 43% (inactive) |
| COc1ccc2nc3ccccc3nc2c1 | 35% (inactive) |
| CCN(CC)C(=O)CSc1nnc(-c2cccc(OC)c2)o1 | -66% (inactive) |
| c1ccc2nc3ccccc3nc2c1 | 41% (inactive) |
| Cn1c(O)c(C(=Nc2ccc(F)cc2)c2ccccc2Cl)c(=O)n(C)c1=O | -114% (inactive) |
| c1ccc2[nH]c3cc4ncnc4cc3nc2c1 | -129% (inactive) |
| O=C(Nc1ccc2nccnc2c1)NC1CCCCC1 | 8% (inactive) |
| COc1ccc2cc(C3CC(c4ccco4)=NN3S(=O)(=O)c3ccccc3)c(Cl)nc2c1 (stereo not drawn) | 26% (inactive) |
| Nc1cc2nc3ccccc3nc2cc1N | -45% (inactive) |
| CC(C)OC(=O)CSc1nnc(-c2ccc(Cl)cc2Cl)o1 | 41% (inactive) |
| CN1CCN(C(=O)c2ccc3nccnc3c2)CC1 | -332% (inactive) |
| O=C(O)c1ccc2nccnc2c1 | 47% (inactive) |
| O=C(O)c1cnc2ccccc2n1 | 7% (inactive) |
| O=C(O)c1cccc2nccnc12 | -180% (inactive) |
| N#CCc1nn(-c2ccccc2)c2ncnc(N)c12 | 31% (inactive) |
| O=C(/C=C/c1cccs1)NC(=S)NNC(=O)Cc1cccs1 | 81% |
| CC(C)(C)Nc1ncnc2c1cnn2-c1ccccc1 | 18% (inactive) |
| O=C(Nc1ccc2nc3ccccc3nc2c1)c1ccc(Br)cc1 | 68% (inactive) |
| Cc1cc(C)c2[nH]c3nc(SCC(=O)O)nnc3c2c1 | 16% (inactive) |
| O=C(c1ccc2nccnc2c1)N1CCCCC1 | -141% (inactive) |
| CCN(CC)c1ccc2nc3ccc(N)cc3[n+](-c3ccccc3)c2c1 | -22% (inactive) |
| O=C(/C=C/c1ccccc1)NC(=S)NNC(=O)Cc1cccs1 | 57% (inactive) |
| O=C(c1cccc2nc3ccccc3nc12)N1CCOCC1 | -106% (inactive) |
| Cc1ccc(-c2nn(C(C)(C)C)c3ncnc(N)c23)cc1 | -42% (inactive) |

| SMILES | event count decrease |
| --- | --- |
| O=C(Nc1ccccc1)c1ccc2nccnc2c1 | -494% (inactive) |
| COc1ccc2nc3ccccc3[n+]([O-])c2c1 | 41% (inactive) |
| O=C(NCc1ccccc1)c1ccc2nccnc2c1 | 80% (inactive) |
| O=C1c2c(O)ccc(O)c2C(=O)c2c(NCCNCCO)ccc(NCCNCCO)c21 | -180% (inactive) |
| O=C(OCc1c(F)cccc1Cl)c1cnc2ccccc2n1 | 53% (inactive) |
| CC(C)(C)n1nc(-c2ccc(F)cc2)c2c(N)ncnc21 | -56% (inactive) |
| O=C(Nc1cccc2nccnc12)c1ccccc1 | 16% (inactive) |
| CC(C)CSc1nnc2c3ccccc3n(C)c2n1 | -5% (inactive) |
| O=C(c1cccc2nccnc12)N1CCOc2ccccc21 | -51% (inactive) |
| O=C(c1ccc2nccnc2c1)N1CCN(c2ccccc2)CC1 | -299% (inactive) |
| O=C(Nc1ccc2nccnc2c1)N1CCOCC1 | -21% (inactive) |
| O=C(Nc1ccc2nccnc2c1)c1cccc2nccnc12 | 95% (inactive) |
| Cc1ccccc1NC(=O)c1cccc2nc3ccccc3nc12 | -36% (inactive) |
| C=CCSc1ccc(-c2ccc([N+](=O)[O-])cc2)o1 | 40% (inactive) |
| C=CCOn1c(=O)c(-c2cccs2)[n+]([O-])c2ccccc21 | -43% (inactive) |
| CCC(=Nc1ccccc1O)C1=C(O)CC(c2ccccc2)CC1=O (stereo not drawn) | -11% (inactive) |
| C[n+]1c2ccccc2nc2ccc(NCCO)cc21 | 56% (inactive) |
| C#CCSc1ccc(-c2ccc([N+](=O)[O-])cc2)o1 | 21% (inactive) |
| CSc1nnc(-c2ccc([N+](=O)[O-])cc2)o1 | 44% (inactive) |
| CC(=O)Nc1ccc2nc3ccccc3nc2c1 | 43% (inactive) |
| CC(C)(C)NC(=O)Nc1ccc2nccnc2c1 | -56% (inactive) |
| O=c1[nH]c(O)c(C=Nc2ccc(F)c(Cl)c2)c(=O)[nH]1 | 27% (inactive) |
| CCN(CC)C(=O)c1cccc2nc3ccccc3nc12 | -36% (inactive) |
